Values quoted from earlier work, collected in US20100113583A1, “COMBINATION THERAPIES FOR THE TREATMENT OF OBESITY” (priority 2008, published 2010).

Assays:
[1] = for weight loss of body weight for drug compared with placebo: literature studies

Row | SMILES | clinically significant side effect / limitation of clinical use | weight loss of body weight for drug compared with placebo [1] | efficacy in clinical use ([1]; clinical use as weight loss drug)
1 | CCN[C@@H](C)Cc1cccc(C(F)(F)F)c1 [dexfenfluramine] | suspected heart valvulopathy | about 5% | –
2 | CCNC(C)Cc1cccc(C(F)(F)F)c1 (stereo not drawn) [fenfluramine] | caused heart-valve complications | – | –
3 | CCCCCCCCCCC[C@@H](C[C@@H]1OC(=O)[C@H]1CCCCCC)OC(=O)[C@H](CC(C)C)NC=O [orlistat] | GI side effects | about 5% | –
4 | CC(C)(N)Cc1ccccc1 [phentermine] | – | about 5% | limited efficacy
5 | CC(C)CC(N(C)C)C1(c2ccc(Cl)cc2)CCC1 (stereo not drawn) [sibutramine] | can cause hypertension | about 5% | –
